Results from patent US10251874B2, “Crystalline forms of a JAK inhibitor compound” (THERAVANCE BIOPHARMA R&D IP, LLC, priority 2017, dated 2019).
Like-named read-outs stand apart in the source and are kept apart here.

Settings: for sorption/desorption profile (hygroscopicity): DMS, two cycles of sorption and desorption, 25° C.
Method: Dynamic moisture sorption (DMS) measurement was performed using a VTI atmospheric microbalance, SGA-100 system (VTI Corp., Hialeah, FL 33016). A weighed sample was used and the humidity was lowest possible value (close to 0% RH) at the start of the analysis. The DMS analysis consisted of an initial drying step (˜0%RH) for 120 minutes, followed by two cycles of sorption and desorption with a scan rate of 5% RH/step over the humidity range of 5% RH to 90% RH. The DMS run was performed isothermally at 25° C.

SMILES	sorption/desorption profile (hygroscopicity)	total moisture uptake (relative humidity between about 30% and about 90% at room temperature)	total moisture uptake (relative humidity between about 5% and about 90% at room temperature)
CCc1cc(O)c(F)cc1-c1ccc2c(-c3nc4c([nH]3)CCN(C3CCN(C)CC3)C4)n[nH]c2c1.O.O=C(O)C(=O)O [oxalate hydrate, Crystalline Oxalate Hydrate of 5-ethyl-2-fluoro-4-(3-(5-(1-methylpiperidin-4-yl)-4,5,6,7-tetrahydro-1H-imidazo[4,5-c]pyridin-2-yl)-1H-indazol-6-yl)phenol]	slight propensity for hygroscopicity	about 1%	–
CCc1cc(O)c(F)cc1-c1ccc2c(-c3nc4c([nH]3)CCN(C3CCN(C)CC3)C4)n[nH]c2c1.O.O=C(O)CCC(=O)O [succinate hydrate, Crystalline Succinate Hydrate of 5-ethyl-2-fluoro-4-(3-(5-(1-methylpiperidin-4-yl)-4,5,6,7-tetrahydro-1H-imidazo[4,5-c]pyridin-2-yl)-1H-indazol-6-yl)phenol]	slight propensity for hygroscopicity	–	about 2%
